Results reported in patent US20180258381A1, “BIO-LAMINA BIOREACTORS AND METHODS OF MAKING AND USING THE SAME” (Oregon State University, priority 2015, published 2018).

Assays:
[1] = tested on: methanol dehydrogenase (MDH); test: MeOH consumption of fresh sMMO expressing culture exposed to cPOH; format: cell-based, M. trichosporium OB3b; settings: highest concentration of cPOH added with 1 mM MeOH
Description: In the absence of CH4, sMMO expressing OB3b in alginate beads were incubated 18 h with cyclopropane (CP, FIG. 36A) and produced an oxidized product hypothesized to be cyclopropanol (cPOH). cPOH is more water soluble than CP, enabling removal of CP by purging the headspace with air (FIG. 36B). Work is progressing on the identification cPOH by mass spec analysis. […] Inhibition of MDH was confirmed by exposing fresh non-inhibited sMMO expressing M. trichosporium OB3b to cPOH (FIG. 36D).
In the absence of cPOH 1 mM MeOH was consumed <10 minutes, but when cPOH was added with 1 mM MeOH there was a concentration dependent effect on the rate of MeOH consumption. At low and medium cPOH concentrations, significant amounts of MeOH were consumed before the initial time points could be taken.

[2] = tested on: M. trichosporium OB3b culture; test: Column packed with culture immobilized in alginate beads, cPOH inhibition; format: cell-based
Description: In parallel with the BLP reactor runs, the response of methane consumption and MeOH production in a column packed with M. trichosporium OB3b culture immobilized in alginate beads (0.4 mg cell protein total) was evaluated. The column was incubated under batch conditions for 18 hours with cPOH, then quickly flushed with ˜10 pore volumes of dilute growth media, before dilute media flow containing ˜200 μM CH4 was begun at a rate of 41 ml/hour (FIG. 38). Over the course of day 1, 80±10% of influent CH4 was consumed and MeOH accumulated with an efficiency (MeOH produced/CH4 consumed) of 94±21%. […] To see if MeOH production could be renewed, the column was again exposed to cPOH for 18 hours as previously described. On days 3, 4, and 7, 66±8% of influent CH4 was consumed and MeOH accumulated with an efficiency of >90%.

[3] = tested on: OB3b cells; test: Long term packed column experiment, cyclopropanol inhibition; format: cell-based, M. trichosporium OB3b
Description: In some examples, OB3b cells were harvested from the chemostats described herein to make alginate beads for a long term packed column experiment. Total cell mass within the column was 300 mg with and the column void space was 6 mL. The flow rates of a methane solution (2 mg/L) were varied and the inlet and outlet concentrations were measured for a methane consumption efficiency curve shown in FIG. 45A.
An increase in methane consumption with an increase in residence time was observed. The column was then inhibited with cyclopropanol (1/10 dilution) for 18 hours. A flow rate of 2 mL/min was used for all further testing. Methane consumption decreased from 0.21 μmol/hr to 0.15 μmol/hr after the inhibition, while 0.13 μmol/hr of methanol was produced. After 24 hours methanol production decreased to 0.06 μmol/hr and methane consumption increased to 0.24 μmol/hr. The inhibition process was repeated for 18 hours and methanol production evaluated under the same operating conditions. The maximum methanol production rates lasted about 3 hours, and then declined, while methane consumption was maintained. Overall, the column responded similarly to two inhibitions ran at constant flow for two weeks with little problem.

[4] = tested on: MDH; test: cPOH inhibition of MDH of culture immobilized in alginate beads; format: cell-based
Text: The examples described above can be used to determine optimal cPOH concentrations and exposure time to maximize MeOH production. In some examples, cPOH inhibition is rapid and irreversible. In some examples, cPOH inhibited MDH of culture immobilized in alginate beads in less than 100 seconds, and MDH inhibition was maintained after alginate beads were rinsed to remove cPOH.

[5] = tested on: M. trichosporium OB3b; test: Chemostat inhibition with cyclopropanol; format: cell-based
Text: In one embodiment, a seven-liter chemostat was used to grow a culture of M. trichosporium OB3b without copper present, therefore expressing sMMO. The temperature-controlled jacketed reactor has multiple input and output lines for gas and liquid feed, a paddle stirrer for agitation, sensors for continuous monitoring of pH and DO, and metered oxygen delivery tied to a DO concentration set-point. The reactor was inoculated with a dilute culture of M. trichosporium OB3b and operated in batch mode for approximately one month before continuous fluid flow was established. […] A second two-liter chemostat growing a culture of M. trichosporium OB3b with copper present, expressing pMMO, also was used.
Cyclopropanol was added under batch-flow conditions with no methane being fed to the reactor to limit methanol competition for MDH and increase the effectiveness of the inhibitor. Methanol accumulated in solution for about 24 hours and then was slowly washed from the reactor (FIG. 35A). The microbial methanol production rate in the chemostat peaked within 24 hours at about 0.5 mg/(L*h) and was essentially zero after two days (FIG. 35B).
The activity results remained stable at the above values for 5 days after inhibition with cyclopropanol present throughout. […] Complete shutdown of methane oxidation within the chemostat most likely occurred due to very successful inhibition of MDH resulting in a loss of reducing power needed for MMO operation. […] By day 8, methane utilization and oxygen uptake were restored in the chemostat and the biomass concentration increased back to pre-inhibition values. […] The chemostat inhibition experiment is being conducted again with modifications to the concentration of inhibitor and conditions of inhibition in attempt to produce conditions for continuous methanol production and to maintain higher methane oxidation rates throughout.
In the first two embodiments an estimated 75 μg/L cyclopropanol (cPOH) was added to the chemostat. Methanol production by M. trichosporium OB3b within the chemostat lasted less than 12 hours. Following initial methanol production, cell growth ceased and cells began washing out of the reactor. Once signs of washout were observed formate was added to the chemostat to a concentration of 10 mM. […] In subsequent attempts at methanol production, smaller cyclopropanol additions were used in an attempt to inhibit the organisms enough to produce methanol without disrupting their ability to grow fast enough to avoid washout. […] In each case, a peak in cumulative methanol production was reached followed by a decline indicating the recovery of the methanol oxidation capability of the culture (FIG. 43). […] Since the cyclopropanol concentrations used in these examples were below the detection limit of the analytical method, the cyclopropanol fate in the chemostat is uncertain in some embodiments.
Throughout each experiment specific oxygen utilization rate (SOUR) tests were conducted with samples from the chemostat as indicators of MDH and methane monooxygenase (MMO) activity (FIGS. 44A and 44B). Methanol SOURs indicate essentially immediate inhibition of MDH activity, although it took up to 1 hour to reach a minimum in activity. Significant methane inhibition is indicated in the methane SOURs and it occurs with essentially the same magnitude and time scale as the methanol SOUR results. The recovery of MDH indicated by SOUR tests correlated with the observed reduction in cumulative methanol production in the chemostat. […] A peak in DO concentration was reached first followed by a peak in pH and lastly methanol concentration. The increase in pH and DO is expected to be the result of incomplete methane oxidation and a subsequent reduction in CO2 production.

[6] = day 1, after 18 hours with cPOH
[7] = days 3, 4, and 7, after second 18 hours cPOH exposure
[8] = after inhibition with cyclopropanol (1/10 dilution) for 18 hours, flow 2 mL/min
[9] = post-inhibition microbial activity sampling

## OC1CC1 [cPOH, cyclopropanol]
[1]
  effect on rate of MeOH consumption: significantly slowed MeOH consumption
[2]; [6]
  MeOH accumulation efficiency (MeOH produced/CH4 consumed): 94±21%
  influent CH4 consumed: 80±10%
[2]; day 2
  MeOH accumulation: no MeOH accumulated
  influent CH4 consumed: 67±6%
[2]; [7]
  MeOH accumulation efficiency (MeOH produced/CH4 consumed): > 90%
  influent CH4 consumed: 66±8%
[3]; 24 hours after inhibition
  methane consumption: 0.24 µmol/h
  methanol production: 0.06 µmol/h
[3]; [8]
  methane consumption: 0.15 µmol/h
  methanol produced: 0.13 µmol/h
[4]
  time to inhibit MDH: less than 100 seconds
[5]; addition of 2-8 mg/L cyclopropanol
  duration of methanol production: 2 to 6 h
[5]; cPOH additions to reach 0.5 μg/L or lower
  effects on pH and DO concentrations within the chemostat: no discernable effects
[5]; estimated 75 μg/L cyclopropanol added
  duration of methanol production within the chemostat: less than 12 hours
[5]; peaked within 24 hours after cyclopropanol addition
  peak microbial methanol production rate in the chemostat: about 0.5 mg/(L*h)
[5]; [9]
  reduction in batch methane oxidation rate: 94%
  reduction in ethylene oxidation rate: 97%
  reduction in formate-dependent oxygen uptake rate: 20-25%
  reduction in methanol-dependent oxygen uptake rate: 95%
